Assay results taken from PMC10485906, “Development of a Dihydroquinoline–Pyrazoline GluN2C/2D-Selective Negative Allosteric Modulator of the N-Methyl-D-aspartate Receptor” (ACS Chemical Neuroscience, 2023).
Read-outs that look alike come from different tables or passages of the source.

Assays:
GluN1/GluN2B [1] = target: T1, GluN1/GluN2B (Rattus norvegicus, UniProt P35439+Q00960); experiment: Two-electrode voltage-clamp recordings, Xenopus laevis oocytes, GluN1/GluN2B; assay type: cell-based; conditions: 100 μM glutamate, 30 μM glycine; for remaining activity at 30 µM: 30 μM test compound, mean ± SEM, read-out: I 30 μM / I control GluN2B; for IC50: read-out: IC50 GluN2B [95% CI]
T1 construct: GluN2B (NM_012574.1), GluN2C (NM_012575.3), and GluN2D (NM_022797.2) were provided by; expressed in transfected cells; host or cells: Xenopus laevis oocytes (cRNA injection)
Protocol: (§1) All target compounds were evaluated for NMDAR antagonism using two-electrode voltage-clamp recordings from Xenopus laevis oocytes coexpressing recombinant GluN1 and GluN2A-D subunits (Table 1).[32],[42],[33] All analogues were assessed as either a racemic (2b, 2e–2r) or diastereomeric (2d) mixture to simplify purification and streamline in vitro analysis. […] Moreover, as illustrated by the significant loss of NMDAR activity observed with nitrile 2e, the DQP allosteric site necessitated an H-bond donor/acceptor relationship at the carboxylate position. […] The loss of NMDAR activity observed with the trifluoro analogue 2j (Table S1) reinforced the necessity for an H-bond donor/acceptor relationship to maintain allosteric binding and established that fluorine substitution alone is ineffective. […] A single methyl substitution of the amide in compound 2q improved selectivity against GluN2A and had similar potency as 2a, whereas dual methyl substitution reduced potency (2r). We expect that this is likely due to the ability of the […] of the amide to accept hydrogen bonds while the amide can readily donate a proton.
(§2) Unfertilized Xenopus laevis oocytes were obtained from Ecocyte (Austin, TX), or ovaries were purchased from Xenopus 1 (Dexter, MI) and oocytes prepared as previously described.[42],[47] Two-electrode voltage-clamp recordings were performed on oocytes expressing recombinant rat GluN1/GluN2A, GluN1/GluN2B, GluN1/GluN2C, or GluN1/GluN2D. cDNAs for rat GluN1-1a (referred to as GluN1; NCBI Reference Sequence NM_017010.2), GluN2A (NM_012573.4), GluN2B (NM_012574.1), GluN2C (NM_012575.3), and GluN2D (NM_022797.2) were provided by Dr. S. Heinemann from the Salk Institute, Dr. S. Nakanishi from Kyoto University, and Dr. P. Seeburg from the University of Heidelberg. Oocyte isolation, cRNA synthesis, and cRNA injections were performed as previously described.[32],[33],[47] Briefly, Xenopus laevis oocytes were injected with 5–10 ng of cRNA in RNase-free water with the GluN1:GluN2 ratio ranging from 1:1 to 1:5. Oocytes were incubated at 15–19 °C in Barth’s solution consisting of (in mM) 88 NaCl, 1 KCl, 2.4 NaHCO3, 10 HEPES, 0.82 MgSO4, 0.33 Ca(NO3)2, and 0.41 CaCl2 supplemented with 100 μg/mL gentamycin, 40 μg/mL streptomycin, and 50 μg/mL penicillin. Recordings were performed 2–4 days after injection with extracellular recording solution containing (in mM) 90 NaCl, 1 KCl, 10 HEPES, 0.5 BaCl2, and 0.01 EDTA at pH 7.4 adjusted with NaOH. To prevent a gradual increase in current response over the course of the experiment, some oocytes expressing GluN1/GluN2A were injected with 20–50 nL of 2–50 mM K-BAPTA. Concentration–response curves for test compounds were generated by applying a maximally effective concentration of glutamate (100 μM) and glycine (30 μM), followed by glutamate and glycine with variable concentrations of test compounds up to 30 μM. The test compounds were prepared as 20 mM stock solutions in DMSO and diluted to the final concentration in recording solution. The DMSO content was 0.05–0.5% (v/v). […] Methods for off-target analysis are given in the Supporting Information.
(§3) Confidence intervals were determined for the log(IC50). The time course of relaxation during inhibitor application or deactivation following rapid removal of NMDA or glutamate was fitted by the equation [drawing 5] 2

GluN1/GluN2A [2] = target: T2, GluN1/GluN2A (Rattus norvegicus, UniProt P35439+Q00959); experiment: Two-electrode voltage-clamp recordings, Xenopus laevis oocytes, GluN1/GluN2A; assay type: cell-based; conditions: 100 μM glutamate, 30 μM glycine; for remaining activity at 30 µM: 30 μM test compound, mean ± SEM, read-out: I 30 μM / I control GluN2A; for IC50: read-out: IC50 GluN2A [95% CI]
T2 construct: expressed in transfected cells; host or cells: Xenopus laevis oocytes (cRNA injection)
Protocol: as §1, §2, §3

GluN1/GluN2C [3] = target: GluN1/GluN2C (Rattus norvegicus, UniProt P35439+Q00961); experiment: Two-electrode voltage-clamp recordings, Xenopus laevis oocytes, GluN1/GluN2C; assay type: cell-based; parameters: GluN2B (NM_012574.1), GluN2C (NM_012575.3), and GluN2D (NM_022797.2) were provided by; expressed in transfected cells; host or cells: Xenopus laevis oocytes (cRNA injection); conditions: 100 μM glutamate, 30 μM glycine; for remaining activity at 30 µM: 30 μM test compound, mean ± SEM, read-out: I 30 μM / I control GluN2C; for IC50: read-out: IC50 GluN2C [95% CI]
Protocol: as §1, §2, §3

GluN1/GluN2D [4] = target: GluN1/GluN2D (Rattus norvegicus, UniProt Q62645); experiment: Two-electrode voltage-clamp recordings, Xenopus laevis oocytes, GluN1/GluN2D; assay type: cell-based; parameters: GluN2B (NM_012574.1), GluN2C (NM_012575.3), and GluN2D (NM_022797.2) were provided by; expressed in transfected cells; host or cells: Xenopus laevis oocytes (cRNA injection); conditions: for Selectivity 2A IC50 / 2D IC50: GluN2D over GluN2A; for Selectivity 2B IC50 / 2D IC50: GluN2D over GluN2B
Protocol: as §1, §2, §3

GluN1/GluN2D [5] = target: GluN1/GluN2D (Rattus norvegicus, UniProt P35439+Q62645); experiment: as above; assay type: cell-based; parameters: GluN2B (NM_012574.1), GluN2C (NM_012575.3), and GluN2D (NM_022797.2) were provided by; expressed in transfected cells; host or cells: Xenopus laevis oocytes (cRNA injection); conditions: 100 μM glutamate, 30 μM glycine; for remaining activity at 30 µM: 30 μM test compound, mean ± SEM, read-out: I 30 μM / I control GluN2D; for IC50: read-out: IC50 GluN2D [95% CI]
Protocol: as §1, §2, §3

[6] = Brain homogenate tissue binding and stability (RED device); assay type: in vitro ADME, mouse
Protocol: Carbamazepine (Apin Chemicals) served as a positive control for brain tissue binding. Test compounds and the positive control were initially dissolved in DMSO to make 1 mM stock solutions. […] A rapid equilibrium dialysis (RED) device (Thermo Scientific) containing a dialysis membrane with a molecular weight cutoff of 8000 Da was used to assess tissue binding and metabolic stability. […] The test compounds and positive control (200 μL of 5 μM solution) were added to the red chamber of the dialysis insert, while the white chamber was filled with dialysis buffer (350 μL). The RED device was then sealed with an adhesive film and incubated at 37 °C with shaking (300 rpm) for 4 h. For the initial time point (t = 0 min), 50 μL aliquots of test compounds and the positive control were added to 96-deep well plates (0.7 mL per well) and quenched with 400 μL of MeCN. Following dialysis, another 50 μL aliquot of the tested samples was removed from each well (brain homogenate and buffer) and diluted with an equal volume of the opposite matrix to nullify any matrix effects. […] The supernatant (100 μL) was subsequently transferred to 96-deep well plates for LC-MS/MS analysis. Prodrug metabolism and 2i concentrations were determined by fit-for-purpose LC-MS/MS methods on a nine-point calibration curve ranging from 0.12 to 7.5 μM.

GluN1/GluN2C [7] = target: GluN1/GluN2C (Rattus norvegicus, UniProt Q00961); experiment: Two-electrode voltage-clamp recordings, Xenopus laevis oocytes, GluN1/GluN2C; assay type: cell-based; parameters: GluN2B (NM_012574.1), GluN2C (NM_012575.3), and GluN2D (NM_022797.2) were provided by; expressed in transfected cells; host or cells: Xenopus laevis oocytes (cRNA injection); conditions: 100 μM glutamate, 30 μM glycine, mean ± SEM
Protocol: as §1, §2, §3

GluN1/GluN2B [8] = target: T3, GluN1/GluN2B (Rattus norvegicus, UniProt Q00960); experiment: Two-electrode voltage-clamp recordings, Xenopus laevis oocytes, GluN1/GluN2B; assay type: cell-based; conditions: tested at 3 μM; 100 μM glutamate, 30 μM glycine; mean ± SEM
T3 construct: GluN2B (NM_012574.1), GluN2C (NM_012575.3), and GluN2D (NM_022797.2) were provided by; expressed in transfected cells; host or cells: Xenopus laevis oocytes (cRNA injection)
Protocol: as §1, §2, §3

GluN1/GluN2A [9] = target: T4, GluN1/GluN2A (Rattus norvegicus, UniProt Q00959); experiment: Two-electrode voltage-clamp recordings, Xenopus laevis oocytes, GluN1/GluN2A; assay type: cell-based; conditions: tested at 3 μM; 100 μM glutamate, 30 μM glycine; mean ± SEM
T4 construct: expressed in transfected cells; host or cells: Xenopus laevis oocytes (cRNA injection)
Protocol: as §1, §2, §3

T1 sequence (Q00960 27-1482, other chains not shown): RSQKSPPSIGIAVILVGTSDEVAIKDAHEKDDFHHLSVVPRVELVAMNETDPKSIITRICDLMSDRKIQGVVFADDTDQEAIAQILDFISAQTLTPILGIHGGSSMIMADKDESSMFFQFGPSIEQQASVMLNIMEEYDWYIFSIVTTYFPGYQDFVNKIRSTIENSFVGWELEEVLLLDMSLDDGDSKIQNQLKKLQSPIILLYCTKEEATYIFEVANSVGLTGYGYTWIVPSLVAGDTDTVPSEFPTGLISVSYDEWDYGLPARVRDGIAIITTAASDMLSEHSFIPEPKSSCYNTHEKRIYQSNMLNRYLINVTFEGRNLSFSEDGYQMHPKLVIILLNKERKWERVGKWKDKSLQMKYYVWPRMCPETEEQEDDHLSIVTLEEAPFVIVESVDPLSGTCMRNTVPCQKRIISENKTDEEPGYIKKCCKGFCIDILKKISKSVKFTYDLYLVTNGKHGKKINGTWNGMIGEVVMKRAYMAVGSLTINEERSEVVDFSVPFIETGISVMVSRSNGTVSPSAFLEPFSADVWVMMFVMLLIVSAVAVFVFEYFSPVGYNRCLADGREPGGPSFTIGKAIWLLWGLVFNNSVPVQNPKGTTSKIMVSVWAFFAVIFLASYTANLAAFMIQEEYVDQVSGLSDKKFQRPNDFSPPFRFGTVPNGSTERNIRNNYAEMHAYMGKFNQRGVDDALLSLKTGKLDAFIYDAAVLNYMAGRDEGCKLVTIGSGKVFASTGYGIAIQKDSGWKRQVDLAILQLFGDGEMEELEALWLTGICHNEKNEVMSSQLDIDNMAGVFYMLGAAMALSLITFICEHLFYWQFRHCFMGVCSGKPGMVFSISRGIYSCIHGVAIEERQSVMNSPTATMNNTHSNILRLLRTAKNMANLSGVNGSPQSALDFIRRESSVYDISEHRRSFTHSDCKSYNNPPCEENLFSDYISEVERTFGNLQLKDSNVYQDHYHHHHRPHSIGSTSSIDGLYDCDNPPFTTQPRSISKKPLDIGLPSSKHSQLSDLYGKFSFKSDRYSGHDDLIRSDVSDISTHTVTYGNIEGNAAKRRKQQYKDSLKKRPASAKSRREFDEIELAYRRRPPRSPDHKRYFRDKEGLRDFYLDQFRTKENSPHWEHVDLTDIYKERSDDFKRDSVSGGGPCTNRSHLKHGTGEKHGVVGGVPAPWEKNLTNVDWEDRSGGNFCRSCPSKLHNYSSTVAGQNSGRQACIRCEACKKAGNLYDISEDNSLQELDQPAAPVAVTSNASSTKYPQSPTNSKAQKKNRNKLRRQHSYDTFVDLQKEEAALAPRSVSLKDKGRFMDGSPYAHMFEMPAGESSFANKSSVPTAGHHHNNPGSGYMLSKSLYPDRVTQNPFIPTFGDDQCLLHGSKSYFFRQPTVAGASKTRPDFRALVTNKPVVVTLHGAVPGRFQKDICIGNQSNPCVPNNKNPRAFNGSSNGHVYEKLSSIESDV
Sequence of GluN1/GluN2C (Rattus norvegicus, UniProt P35439+Q00961) (Q00961 20-1237, other chains not shown): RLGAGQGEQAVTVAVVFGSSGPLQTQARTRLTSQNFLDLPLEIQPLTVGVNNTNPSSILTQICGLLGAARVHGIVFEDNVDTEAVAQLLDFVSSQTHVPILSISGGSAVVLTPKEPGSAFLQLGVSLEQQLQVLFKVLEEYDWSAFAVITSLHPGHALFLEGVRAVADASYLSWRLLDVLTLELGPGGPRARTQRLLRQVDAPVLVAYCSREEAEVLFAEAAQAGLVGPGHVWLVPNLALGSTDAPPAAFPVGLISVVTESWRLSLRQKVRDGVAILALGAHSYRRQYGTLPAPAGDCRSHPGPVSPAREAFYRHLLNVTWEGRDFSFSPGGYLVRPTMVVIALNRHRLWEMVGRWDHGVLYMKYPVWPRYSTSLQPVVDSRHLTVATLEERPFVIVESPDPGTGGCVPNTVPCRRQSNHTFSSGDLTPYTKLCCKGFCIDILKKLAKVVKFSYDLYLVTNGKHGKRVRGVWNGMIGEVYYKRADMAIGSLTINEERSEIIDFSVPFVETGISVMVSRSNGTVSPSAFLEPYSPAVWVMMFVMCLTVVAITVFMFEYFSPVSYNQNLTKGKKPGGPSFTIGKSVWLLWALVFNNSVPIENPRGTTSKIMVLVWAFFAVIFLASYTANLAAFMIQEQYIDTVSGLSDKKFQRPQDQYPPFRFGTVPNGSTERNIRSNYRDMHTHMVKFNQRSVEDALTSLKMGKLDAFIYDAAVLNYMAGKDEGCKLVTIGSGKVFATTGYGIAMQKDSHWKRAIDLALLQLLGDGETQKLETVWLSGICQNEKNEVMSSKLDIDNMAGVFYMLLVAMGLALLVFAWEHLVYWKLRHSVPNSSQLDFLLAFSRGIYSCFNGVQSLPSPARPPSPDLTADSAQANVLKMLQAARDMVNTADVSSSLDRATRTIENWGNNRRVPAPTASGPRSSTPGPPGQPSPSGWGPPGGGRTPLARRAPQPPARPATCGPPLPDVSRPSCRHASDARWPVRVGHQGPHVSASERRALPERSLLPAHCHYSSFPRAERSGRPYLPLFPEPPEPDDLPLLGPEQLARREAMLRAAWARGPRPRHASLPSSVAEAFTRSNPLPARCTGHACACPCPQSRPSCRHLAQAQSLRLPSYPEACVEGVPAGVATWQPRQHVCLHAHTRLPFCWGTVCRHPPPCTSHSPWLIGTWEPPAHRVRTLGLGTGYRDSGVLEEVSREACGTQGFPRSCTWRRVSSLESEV
T2 sequence (Q00959 23-1464, other chains not shown): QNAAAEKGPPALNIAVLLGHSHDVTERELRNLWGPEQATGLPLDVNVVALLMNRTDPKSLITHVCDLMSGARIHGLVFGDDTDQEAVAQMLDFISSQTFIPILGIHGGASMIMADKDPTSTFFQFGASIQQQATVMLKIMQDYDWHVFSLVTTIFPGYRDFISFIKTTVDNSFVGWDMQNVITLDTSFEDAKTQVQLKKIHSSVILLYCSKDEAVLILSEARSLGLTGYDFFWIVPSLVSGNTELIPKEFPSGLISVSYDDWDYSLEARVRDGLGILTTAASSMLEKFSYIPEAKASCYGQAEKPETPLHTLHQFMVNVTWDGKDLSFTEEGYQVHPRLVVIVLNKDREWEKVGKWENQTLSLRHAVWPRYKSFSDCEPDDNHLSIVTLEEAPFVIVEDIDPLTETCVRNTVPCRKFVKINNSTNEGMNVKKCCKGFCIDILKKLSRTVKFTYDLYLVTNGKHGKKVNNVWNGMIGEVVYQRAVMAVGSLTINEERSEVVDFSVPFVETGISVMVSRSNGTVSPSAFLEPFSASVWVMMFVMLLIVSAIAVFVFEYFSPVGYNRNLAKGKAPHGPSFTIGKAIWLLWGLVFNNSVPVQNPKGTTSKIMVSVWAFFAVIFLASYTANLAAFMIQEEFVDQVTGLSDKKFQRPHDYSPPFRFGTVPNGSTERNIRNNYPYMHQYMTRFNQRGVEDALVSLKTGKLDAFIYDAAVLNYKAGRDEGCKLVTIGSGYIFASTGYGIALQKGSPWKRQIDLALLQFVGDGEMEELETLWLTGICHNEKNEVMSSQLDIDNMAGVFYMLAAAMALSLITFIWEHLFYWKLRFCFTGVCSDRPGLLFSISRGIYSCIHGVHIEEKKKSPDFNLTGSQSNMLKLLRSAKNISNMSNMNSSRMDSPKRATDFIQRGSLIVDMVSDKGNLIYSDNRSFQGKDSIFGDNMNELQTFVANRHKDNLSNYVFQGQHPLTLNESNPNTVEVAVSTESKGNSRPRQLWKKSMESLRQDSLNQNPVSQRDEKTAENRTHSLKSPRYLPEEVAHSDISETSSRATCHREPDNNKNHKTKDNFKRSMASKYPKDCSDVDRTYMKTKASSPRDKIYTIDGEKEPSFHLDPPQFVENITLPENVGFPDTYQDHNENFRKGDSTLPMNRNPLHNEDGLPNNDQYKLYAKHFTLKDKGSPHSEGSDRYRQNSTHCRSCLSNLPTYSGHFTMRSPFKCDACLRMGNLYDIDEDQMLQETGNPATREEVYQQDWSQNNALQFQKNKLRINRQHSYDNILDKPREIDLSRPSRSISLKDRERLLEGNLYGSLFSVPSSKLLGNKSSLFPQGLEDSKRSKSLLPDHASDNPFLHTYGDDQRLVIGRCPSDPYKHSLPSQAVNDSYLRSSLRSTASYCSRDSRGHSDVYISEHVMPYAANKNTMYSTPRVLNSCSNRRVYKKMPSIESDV
Sequence of GluN1/GluN2C (Rattus norvegicus, UniProt Q00961) (Q00961 20-1237, other chains not shown): as the sequence (Q00961 20-1237, other chains not shown) above

Row | SMILES | remaining activity at 30 µM (GluN1/GluN2B [1]) | IC50 (GluN1/GluN2B [1]) | remaining activity at 30 µM (GluN1/GluN2A [2]) | IC50 (GluN1/GluN2A [2]) | remaining activity at 30 µM (GluN1/GluN2C [3]) | IC50 (GluN1/GluN2C [3]) | Selectivity 2A IC50 / 2D IC50 (GluN1/GluN2D [4]) | Selectivity 2B IC50 / 2D IC50 (GluN1/GluN2D [4]) | remaining activity at 30 µM (GluN1/GluN2D [5]) | IC50 (GluN1/GluN2D [5]) | also measured
1 | O=C(CCc1nnn[nH]1)N1N=C(c2c(-c3ccc(Cl)cc3)c3ccccc3[nH]c2=O)CC1c1ccc(Cl)cc1 (stereo not shown) [2h] | 48 ± 1.9% | 29 µM | 29 ± 4.1% | 22 µM | 2.3 ± 0.5% | 570 nM | 42 fold | 56 fold | 2.4 ± 0.56% | 520 nM | –
2 | NC(=O)N1c2ccccc2C=Cc2ccccc21 [Carbamazepine, reference compound] | – | – | – | – | – | – | – | – | – | – | fraction unbound at 4 h, 5 µM ([6]; C57BL/6, mouse, brain homogenate (4 times diluted), pH 7.4, mouse brain tissue binding (free fraction in brain), read-out: % Unbound): 0.135; fraction unbound at 4 h, 5 µM ([6]; C57BL/6, mouse, brain homogenate (4 times diluted), pH 7.4, mouse brain tissue binding, RED, 4 h, read-out: % Bound Mean ± SD (converted)): 0.135; fraction unbound at 4 h, 5 µM ([6]; C57BL/6, mouse, brain homogenate (4 times diluted), pH 7.4, mouse brain tissue binding, RED, 4 h, read-out: % Bound R1 (converted)): 0.131; fraction unbound at 4 h, 5 µM ([6]; C57BL/6, mouse, brain homogenate (4 times diluted), pH 7.4, mouse brain tissue binding, RED, 4 h, read-out: % Bound R2 (converted)): 0.14; fraction unbound at 4 h, 5 µM ([6]; C57BL/6, mouse, brain homogenate (4 times diluted), pH 7.4, mouse brain tissue binding, read-out: fu): 0.135; remaining at 4 h, 5 µM ([6]; C57BL/6, mouse, brain homogenate (4 times diluted), pH 7.4, starting concentration 5 μM, 4 h): 105%; recovery at 4 h, 5 μM ([6]; C57BL/6, pH 7.4, mouse brain tissue binding, RED, 4 h): 91%
3 | O=C(N1N=C(c2c(-c3ccc(Cl)cc3)c3ccccc3[nH]c2=O)CC1c1ccc(Cl)cc1)C(F)(F)F (stereo not shown) [2j] | 86 ± 2.3% | – | 96 ± 2.1% | – | 100 ± 2.2% | – | – | – | 86 ± 2.8% | – | –
4 | O=C(O)CCCC(=O)N1N=C(c2c(-c3ccc(Cl)cc3)c3ccccc3[nH]c2=O)CC1c1ccc(Cl)cc1 (stereo not shown) [2b] | 57 ± 2.6% | 37 µM | – | 25 µM | – | 900 nM | 39 fold | 58 fold | – | 640 nM | I / I control GluN2C (GluN1/GluN2C [7]; tested at 10 μM (footnote b)): 13 ± 1.3 ^b (1,8) %; I / I control GluN2D (GluN1/GluN2D [4]; tested at 10 μM (footnote b), 100 μM glutamate, 30 μM glycine, mean ± SEM): 5.9 ± 1.6 ^b (1,8) %
5 | N#CCCC(=O)N1N=C(c2c(-c3ccc(Cl)cc3)c3ccccc3[nH]c2=O)CC1c1ccc(Cl)cc1 (stereo not shown) [2e] | 82 ± 2.4% | – | 94 ± 1.4% | – | 67 ± 2.6% | 99000 nM | – | – | 46 ± 5% | 28000 nM | –
6 | N[C@@H](CCC(=O)N1N=C(c2c(-c3ccc(Cl)cc3)c3ccccc3[nH]c2=O)CC1c1ccc(Cl)cc1)C(=O)O (stereo partly shown) [2d] | 48 ± 4% | 21 µM | 36 ± 5.2% | 15 µM | 16 ± 5% | 2100 nM | 14 fold | 19 fold | 3.1 ± 0.59% | 1100 nM | –
7 | O=C(O)CC(F)(F)C(=O)N1N=C(c2c(-c3ccc(Cl)cc3)c3ccccc3[nH]c2=O)C[C@@H]1c1ccc(Cl)cc1 [(R)-(+)-2i] | – | – | – | – | – | 510 nM | – | – | – | 310 nM | I3 μM/Icontrol GluN2B (GluN1/GluN2B [8]): 99 ± 2.4 (3, 12) %; I3 μM/Icontrol GluN2A (GluN1/GluN2A [9]): 103 ± 2.5 (3, 16) %; I3 μM/Icontrol GluN2C (GluN1/GluN2C [7]; tested at 3 μM): 52 ± 2.1 (2, 12) %; I3 μM/Icontrol GluN2D (GluN1/GluN2D [4]; tested at 3 μM, 100 μM glutamate, 30 μM glycine, mean ± SEM): 42 ± 3.5 (2, 13) %
